Source: US12616738B2, “Solid compositions comprising a GLP-1 agonist and a salt of N-(8-(2-hydroxybenzoyl)amino)caprylic acid” (Novo Nordisk A/S, priority 2018, dated 2026)
Where two headings read alike, the source gives them in different places.

Key:
[1] = Assay I: SNAC solubility in combination with selected hydrotropes; details: for Fold increase in solubility: SNAC solubility relative to SNAC control (no hydrotrope), hydrotrope 200 mg/mL, pH 6; for SNAC concentration: hydrotrope 200 mg/mL in ultrapure water, pH 6, 200 mg SNAC added, 4 hours at room temperature, RP-HPLC
[2] = pH 6
[3] = pH 6; remark: listed apart in the source

CN(C)C(=O)c1ccccc1 [N,N dimethyl benzamide]
Fold increase in solubility [1]: 38 fold
SNAC concentration [1]: 22.46 mg/mL

O=C(O[C@@H]1Cc2c(O)cc(O)cc2O[C@@H]1c1cc(O)c(O)c(O)c1)c1cc(O)c(O)c(O)c1 [Epigallocatechin gallate]
Fold increase in solubility [1]: 9.6 fold
SNAC concentration [1]: 5.66 mg/mL

NC(=O)c1cccnc1 [Nicotinamide]
effect on SNAC solubility (FIG. 1) [2]: dose dependent effect

O=C([O-])c1ccccc1O.[Na+] [Sodium salicylate]
Fold increase in solubility [3]: 2.7 fold
SNAC concentration [3]: 1.59 mg/mL

CCN(CC)C(=O)c1cccnc1 [N,N diethyl nicotinamide]
Fold increase in solubility [1]: 7.8 fold
SNAC concentration [1]: 4.58 mg/mL

NC(N)=O [Urea]
Fold increase in solubility [1]: 1.3 fold
SNAC concentration [1]: 0.77 mg/mL
